The source of these data is patent US11084786B2, “Compounds and pharmaceutical composition associated with ubiquitination-proteasome system” (CALGENT BIOTECHNOLOGY CO., LTD., priority 2015, dated 2021).

Common to all, as to type: cell-based
Assay [1] relates to HL-60. Briefly: Growth inhibition assay (MTT), HL-60. Conditions: Homo sapiens, HL-60 cells, 48 hours exposure, read-out: HL-60 IC50 (μM) Mean ± S.E. How it is done:
(§1) Antiproliferative Activity Against Human Normal and Cancer Cell Lines Using Growth Inhibition Assay (GI50)
(§2) The compounds of the invention were subjected to growth inhibition assay. Cells were seeded in 96-well plastic plates and exposed to MPT0L132, MPT0L133, and MPT0L134 for 48 hours. Cell viability was assessed using the 3-(4,5-dimethylthiazol-2-yl)-2,5-diphenyltetrazolium bromide assay. Growth inhibition was expressed as the percentage of surviving cells in drug-treated versus DMSO-treated control cells.

The subject of assay [2] is HCT-116. The assay can be described thus: Growth inhibition assay (MTT), HCT-116. Conditions: Homo sapiens, HCT-116 cells, 48 hours exposure, read-out: HCT-116 GI50 (μM) Mean ± S.E. As for the experimental part: as §1, §2
Assay [3] relates to MDA-MB-231. Briefly: Growth inhibition assay (MTT), MDA-MB-231. Conditions: Homo sapiens, MDA-MB-231 cells, 48 hours exposure, read-out: MDA-MB-231 GI50 (μM) Mean ± S.E. As for the experimental part: as §1, §2
The test system of assay [4] is Hep3B. Briefly: Growth inhibition assay (MTT), Hep3B. Conditions: Homo sapiens, Hep3B cells, 48 hours exposure, read-out: Hep3B GI50 (μM) Mean ± S.E. How it is done: as §1, §2

In general, IC50 refers to the concentration that inhibits the measured activity by half. A word on the GI50: it is the concentration giving 50% growth inhibition. With `O=C(NCCN1CCCC1)c1ccc(CNC2=C(Cl)C(=O)c3ccccc3C2=O)cc1` [MPT0L133, 4-(((3-chloro-1,4-dioxo-1,4-dihydronaphthalen-2-yl)amino)methyl)-N-(2-(pyrrolidin-1-yl)ethyl)benzamide], the IC50 in assay [1] came out at 1.67 ± 0.27 µM. Besides, the GI50 in assay [2] was 4.04 ± 0.65 µM; in assay [3], 10 to 30 µM; in assay [4], 10 to 30 µM.

In the case of `CCN(CC)CCNC(=O)c1ccc(CNC2=C(Cl)C(=O)c3ccccc3C2=O)cc1` [MPT0L134, 4-(((3-chloro-1,4-dioxo-1,4-dihydronaphthalen-2-yl)amino)methyl)-N-(2-(diethylamino)ethyl)benzamide], in assay [1], the IC50 turned out to be 2.52 ± 0.12 µM. For the same molecule, the GI50 in assay [2] is 3.53 ± 0.24 µM; in assay [3] it was 10 to 30 µM; in assay [4] it was 10 to 30 µM.

As for `CN(C)CCNC(=O)c1ccc(CNC2=C(Cl)C(=O)c3ccccc3C2=O)cc1` [MPT0L132, 4-(((3-chloro-1,4-dioxo-1,4-dihydronaphthalen-2-yl)amino)methyl)-N-(2-(dimethylamino)ethyl)benzamide], the IC50 in assay [1] was determined as 2.5 ± 0.15 µM. Also, the GI50 in assay [2] was 3.69 ± 0.24 µM; in assay [3] it was 10 to 30 µM; in assay [4], 10 to 30 µM.
